Among the data in ChEMBL document CHEMBL1141820, “Cytotoxic polyacetylenes from the marine sponge Petrosia sp” (1999) are EC50 values, retold here.

Common to all, as to type: functional
Settings in all cases: read-out: ED50 (the source's name)

In one test the test system is A549. Description: Cytotoxicity against human A549 cells.
The next test relates to SK-OV-3. Description: Cytotoxicity against human SKOV3 cells.
The test system of the next test is SK-MEL-2. Description: Cytotoxicity against human SK-MEL-2 cells.
For another test, the system named is XF498. Description: Cytotoxicity against human XF498 cells.
A further test has as its system HCT-15. Nature of the test: Cytotoxicity against human HCT-15 cells.

Structures are written as SMILES. Values after ≈ are worked out from the molar mass of the structure shown. Bounds are passed on as bounds.

Regarding `C#C/C=C\CCCCCCCCCCCCCC/C=C/CCCC/C=C/CCCCC#C[C@@H](O)C#CCCCCCC/C=C/[C@H](O)C#C`, the EC50 was 1.1 µg/mL (≈ 1.68 µM) in the test with A549; 0.6 µg/mL (≈ 0.916 µM) in the test with SK-OV-3; 1.1 µg/mL (≈ 1.68 µM) with SK-MEL-2; 1.7 µg/mL (≈ 2.6 µM) with XF498; 1 µg/mL (≈ 1.53 µM) with HCT-15.
Turning to `C#CC(O)/C=C/CCCCCCC#CC/C=C/CCCCCCCCC/C=C/C(O)C#C` (stereo not given), the EC50 with A549 was found to be 1.4 µg/mL (≈ 3.21 µM); in the test on SK-OV-3, 0.1 µg/mL (≈ 0.229 µM); with SK-MEL-2, 0.2 µg/mL (≈ 0.458 µM); with XF498 it was 1.2 µg/mL (≈ 2.75 µM); with HCT-15 it was 1.2 µg/mL (≈ 2.75 µM).
Consider `C#C/C=C/[C@@H](O)CCCCCCCCC/C=C/CC#CCCCCCC/C=C/[C@H](O)C#C` [DIDEOXYPETROSYNOL E], for which the EC50 in the test on A549 worked out at 1.3 µg/mL (≈ 2.98 µM); in the test with SK-OV-3, 0.1 µg/mL (≈ 0.229 µM); with SK-MEL-2, 0.1 µg/mL (≈ 0.229 µM); in the test on XF498, 0.6 µg/mL (≈ 1.37 µM); with HCT-15, 0.8 µg/mL (≈ 1.83 µM).
Consider `C#C[C@@H](O)/C=C/CCCCCCC#CC/C=C/C/C=C/CCCCCCCC[C@H](O)C#C` [DIDEOXYPETROSYNOL F], for which the EC50 in the test on A549, with SK-OV-3, in the test with SK-MEL-2, in the test with XF498 and in the test with HCT-15 was more than 3 µg/mL in each case.
In the case of `COc1cccc2c1C(=O)c1c(O)c3c(c(O)c1C2=O)C[C@@](O)(C(=O)CO)C[C@@H]3O[C@H]1C[C@H](N)[C@H](O)[C@H](C)O1` [DOXORUBICIN], the EC50 amounted to 0.1 µg/mL (≈ 0.184 µM) in the test with A549; 0.2 µg/mL (≈ 0.368 µM) with SK-OV-3; 0.2 µg/mL (≈ 0.368 µM) in the test on SK-MEL-2; 0.2 µg/mL (≈ 0.368 µM) in the test on XF498; 0.9 µg/mL (≈ 1.66 µM) with HCT-15.
For the molecule `C#C/C=C\CCCCCCCCCCCCCC/C=C/CCCC/C=C/CC/C=C/C#C[C@@H](O)C#CCCCCCC/C=C/[C@H](O)C#C` [PETROTETRAYNDIOL A], the EC50 stood at 1.6 µg/mL (≈ 2.45 µM) with A549; 0.5 µg/mL (≈ 0.766 µM) with SK-OV-3; 0.9 µg/mL (≈ 1.38 µM) in the test with SK-MEL-2; 1.7 µg/mL (≈ 2.6 µM) in the test on XF498; 1 µg/mL (≈ 1.53 µM) in the test with HCT-15.
For `C#C/C=C\CCCCCCCCCCCCCC/C=C/CCCC/C=C/CCCCC#C[C@@H](O)C#CCCCCCCCC[C@H](O)C#C` [PETROTETRAYNDIOL B] the same measures were 1.7 µg/mL (≈ 2.59 µM), 2.2 µg/mL (≈ 3.35 µM), 1.9 µg/mL (≈ 2.89 µM), more than 3 µg/mL and 3.7 µg/mL (≈ 5.63 µM).
